The values below come from ChEMBL document CHEMBL6092139, “AChE inhibitory activity of N-substituted natural galanthamine derivatives” (Bioorg Med Chem Lett, 2024).

The assay concerns the target Acetylcholinesterase (Homo sapiens, UniProt P22303). The assay is described as follows: Inhibition of AChE (unknown origin) using acetylthiocholine iodide as substrate preincubated for 30 mins followed by substrate addition and measured after 3 mins by DTNB reagent based Ellman's method. (In general: DTNB colorimetry detects thiols as they appear.)

One may read the IC50 as the concentration at which inhibition is half-maximal. Higher therefore signals lower potency.

Acetylcholinesterase, sequence (P22303 whole entry): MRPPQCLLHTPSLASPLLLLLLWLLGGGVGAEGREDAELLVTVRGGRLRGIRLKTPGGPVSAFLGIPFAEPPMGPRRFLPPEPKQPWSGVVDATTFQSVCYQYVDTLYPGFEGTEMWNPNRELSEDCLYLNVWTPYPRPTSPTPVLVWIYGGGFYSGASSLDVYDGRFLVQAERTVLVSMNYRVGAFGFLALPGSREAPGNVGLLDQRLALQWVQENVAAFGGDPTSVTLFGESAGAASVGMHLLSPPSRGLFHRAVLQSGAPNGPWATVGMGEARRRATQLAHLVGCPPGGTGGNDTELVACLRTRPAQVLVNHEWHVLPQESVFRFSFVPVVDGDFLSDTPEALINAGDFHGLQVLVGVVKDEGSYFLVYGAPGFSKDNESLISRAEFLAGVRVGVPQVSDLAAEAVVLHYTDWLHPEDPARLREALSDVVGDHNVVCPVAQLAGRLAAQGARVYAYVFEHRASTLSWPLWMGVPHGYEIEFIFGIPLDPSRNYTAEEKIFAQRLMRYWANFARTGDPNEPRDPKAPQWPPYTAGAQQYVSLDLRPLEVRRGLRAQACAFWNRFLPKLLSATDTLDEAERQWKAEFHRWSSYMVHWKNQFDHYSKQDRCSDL

With `COc1ccc2c3c1O[C@H]1C[C@@H](O)C=C[C@@]31CCN(C=O)C2`, the IC50 stood at 98.8 µM.

In turn, `COc1ccc2c3c1O[C@H]1C[C@@H](O)C=C[C@@]31CCN(C(C)=O)C2` came in with an IC50 of 9.8 µM.

Molecule `C=CCN1CC[C@@]23C=C[C@H](O)C[C@@H]2Oc2c(OC)ccc(c23)C1` [N-ALLYLNORGALANTHAMINE] showed an IC50 of 0.18 µM.
